Test results published in patent publication US11167162B2 (priority 2017, dated 2021).
Several values for one entry are separate records, joined by “and”; a condition that tells them apart may be missing. Equal entries are not always repeated.

System: Fecal coliforms
Type: cell-based

CC(=O)OO [A, peroxyacetic acid]
Category: >1000 and <1000
